Reference: patent publication US20260271949A1, “PHOTOSENSITIZER COMPOSITIONS, DEVICES, AND METHODS OF USE FOR SURFACE SANITIZATION OF PROCESSED FOOD PRODUCTS” (ONDINE INTERNATIONAL AG, priority 2023, published 2026)

How the values were obtained:
MRSA biofilms [1] = test: MBEC (turbidity assay), biofilm recovery plate; assay type: cell-based, Staphylococcus aureus; details: Blue 470 nm (Erythrosin B: Green 527 nm)
Procedure: (§1) The saturated bacterial cultures were diluted 1:10,000 to an approximate density of 10^5 CFU/mL. Density was confirmed by an inoculum check. The inoculum was poured into a sterile reagent reservoir. Using a multi-channel pipette, 200 μL of the ~105 inoculum was added to each well from rows A to G of the MBEC™ device, as indicated in FIGS. 2A-2C (12 devices per organism were tested; 4 devices per study day), 200 μL of OSB was added to row H to act as sterility controls (SC). The pegged lid was then placed into the microtiter plate and sealed in a plastic bag.
(§2) The pegs of the MBEC lid were rinsed for 120 seconds.
(§3) Using additional sterile 96-well receiver plates, recovery plates were prepared (one per MBEC lid) containing 225 μL per well of the neutralizer/recovery broth, as described above. The MBEC lids were transferred to the recovery broth, and the plates (with the pegged lids) were transferred into a stainless-steel insert tray, which sat in the water of a bath sonicator. Sonication was performed on high for 30 minutes to dislodge surviving biofilm. The pegged lid was then removed and discarded.
(§4) 125 μL of OSB was added to each well of the recovery plates to top back up to 225 µL per well. The contents of the wells were mixed by pipetting up and down.

[2] = test system: Staphylococcus aureus (MRSA) 456 S. Yanke; test: Planktonic MBC (turbidity assay), MBEC Assay challenge plate outgrowth; details: Blue 470 nm (Erythrosin B: Green 527 nm)
MRSA biofilms [3] = test: Quantitative determination of MBEC (Log10 reduction assay); assay type: cell-based, Staphylococcus aureus; details: for concentration of optimal efficacy: MRSA biofilm; for Quant. MBEC / log 10 reduction in biofilm CFUs: MRSA; for Quant. MBEC: >4 log10 reduction, PS alone, Blue 470 nm (Erythrosin B: Green 527 nm)
Procedure: (§5) One hundred microlitres was removed from each well of row A of the recovery plate into row A of an appropriately labelled 96-well dilution plate; 100 μL was removed from row B of this recovery plate into row A of another 96-well dilution plate. This was repeated for other utilized MBEC rows (total: up to 8 dilution plates per MBEC recovery plate). These plates were kept for the “Quantitative Determination of MBEC (Log10 Reduction Assay)” described below.
(§6) 180 μL of sterile 0.9% saline was added to each well of rows B-H of the 96-well dilution plates prepared as described above. The sample in row A was then serially diluted in the saline in rows B-H and spot plated on OSA.
(§7) The quantitative MBEC was defined as the minimum concentration of test article that yielded a particular log 10 reduction in biofilm CFUs. For MRSA, >4 log 10 reduction (which corresponds to >99.99% reduction); for S. enterica, >3 log 10 reduction (which corresponds to >99.9% reduction) or, where recovery from the VC controls was <3 log 10, “max kill”.
(§8) Quantitative MBEC results were determined using log 10 reduction. Generally, the appropriate number of colonies were counted on the spot plates according to the plating method used. An appropriate number of colonies that was considered appropriate for counting was a 20 μL spot where the individual colonies were visibly distinct from each other within the plated spot (typically 5-50 colonies). The section in which this spot was located gave the order of magnitude for the cell enumeration: 100-107.

S. enterica biofilms [4] = test: as above; assay type: cell-based, Salmonella enterica; details: for concentration of optimal efficacy: S. enterica biofilm; for Quant. MBEC / log 10 reduction in biofilm CFUs: S. enterica; for Quant. MBEC: >3 log10 reduction or max kill, PS alone, Blue 470 nm (Erythrosin B: Green 527 nm)
Procedure: as §5, §6, §7, §8

S. enterica biofilms [5] = test: MBEC (turbidity assay), biofilm recovery plate; assay type: cell-based, Salmonella enterica; details: Blue 470 nm (Erythrosin B: Green 527 nm)
Procedure: as §1, §2, §3, §4

[6] = test system: Salmonella enterica Serotype Choleraesuis (ATCC 10708); test: Planktonic MBC (turbidity assay), MBEC Assay challenge plate outgrowth; assay type: cell-based; details: S. enterica, PS alone, Blue 470 nm (Erythrosin B: Green 527 nm)
[7] = Coloration of challenge plates under green irradiation; assay type: physicochemical; details: green irradiation 2, 5, 10 min vs dark, most evident for 0.01% and 0.001%
Procedure: FIG. 5 provides representative photographs showing coloration of challenge plates for the Green-irradiated PS (Erythrosin B) under dark conditions and with green irradiation for 2 min, 5 min and 10 min. The highest tested concentration of Erythrosin B (i.e., 1% w/v) was beet red in color, with the 1:1,000 dilution (i.e., 0.001% w/v) yielding a light pink color and minimal coloration remaining by the 1:10,000 dilution (i.e., 0.0001% w/V) (FIG. 5; left).

[8] = fluence 0 (Dark) J/cm^2, PS alone
[9] = Blue-irradiated, tested individually (FIG. 8 Panels A-C)
[10] = Blue-irradiated, tested individually (FIG. 7 Panels A-C)
[11] = PS at 0.01%, 10 minutes of green irradiation (51.0 J/cm^2)
[12] = PS at 0.1%, 5 minutes of green irradiation (25.5 J/cm^2)
[13] = PS at 0.1%, 5 minutes of blue irradiation (51.0 J/cm^2)

SMILES | MBEC (MRSA biofilms [1]; [8]) [% w/V] | MBEC (MRSA biofilms [1]; fluence 10.2 J/cm^2, PS alone) [% w/V] | MBEC (MRSA biofilms [1]; fluence 25.5 J/cm^2, PS alone) [% w/V] | MBC [2, 8] [% w/V] | MBC ([2]; fluence 10.2 J/cm^2, PS alone) [% w/V] | MBC ([2]; fluence 25.5 J/cm^2, PS alone) | concentration of optimal efficacy (MRSA biofilms [3]; [9]) [% w/v] | Quant. MBEC (MRSA biofilms [3]; fluence 0 (Dark) J/cm^2) [% w/V] | Quant. MBEC (MRSA biofilms [3]; fluence 10.2 J/cm^2) [% w/V] | Quant. MBEC (MRSA biofilms [3]; fluence 25.5 J/cm^2) [% w/V] | Quant. MBEC (MRSA biofilms [3]; fluence 51.0 J/cm^2) [% w/V] | Quant. MBEC (S. enterica biofilms [4]; fluence 0 (Dark) J/cm^2) [% w/V] | Quant. MBEC (S. enterica biofilms [4]; fluence 10.2 J/cm^2) [% w/V] | Quant. MBEC (S. enterica biofilms [4]; fluence 25.5 J/cm^2) [% w/V] | Quant. MBEC (S. enterica biofilms [4]; fluence 51.0 J/cm^2) [% w/V] | MBEC (S. enterica biofilms [5]; [8]) [% w/V] | MBEC (S. enterica biofilms [5]; fluence 10.2 J/cm^2, PS alone) | MBEC (S. enterica biofilms [5]; fluence 25.5 J/cm^2, PS alone) | MBC ([6]; fluence 0 (Dark) J/cm^2) [% w/V] | MBC ([6]; fluence 10.2 J/cm^2) | other results
COc1cc(/C=C/C(=O)CC(=O)/C=C/c2ccc(O)c(OC)c2)ccc1O [PS3, Curcumin] | >0.001 | >0.001 | >0.001 | >0.001 | >0.001 | >0.001 % w/V | 0.001 | >0.001 | >0.001 | >0.001 | 0.001 | >0.001 | >0.001 | >0.001 | 0.0001 | >0.001 | >0.001 % w/V | >0.001 % w/V | >0.001 | >0.001 % w/V | MBEC (MRSA biofilms [1]; fluence 51.0 J/cm^2, PS alone): >0.001 % w/V; concentration of optimal efficacy (S. enterica biofilms [4]; [10]): 0.0001 % w/v; MBEC (S. enterica biofilms [5]; fluence 51.0 J/cm^2, PS alone): >0.001 % w/V; MBC ([6]; fluence 25.5 J/cm^2): >0.001 % w/V; MBC ([6]; fluence 51.0 J/cm^2): >0.001 % w/V
O=C1OC2(c3ccccc31)c1cc(I)c(O)c(I)c1Oc1c2cc(I)c(O)c1I [PS4, Erythrosin B] | >1 |  |  |  |  |  |  | >1 | 0.01 |  |  | >1 | >1 | 0.1 | 0.01 | >1 | 0.01 (Ø) % w/V | 0.01 (Ø) % w/V | >1 | 0.01 (Ø) % w/V | coloration upon irradiation [7]: lost coloration with increasing irradiation time; concentration of optimal efficacy (MRSA biofilms [3]; Green irradiation, 10.2 J/cm^2 (FIG. 9)): 0.01%; concentration of optimal efficacy (MRSA biofilms [3]; Green irradiation, 25.5 J/cm^2 (FIG. 9)): 0.1%; log 10 reduction in biofilm CFUs (MRSA biofilms [3]; [11]): max kill; log 10 reduction in biofilm CFUs (MRSA biofilms [3]; [12]): 5.28 log 10; concentration of optimal efficacy (S. enterica biofilms [4]; Green irradiation, 51.0 J/cm^2 (FIG. 9)): 0.01%; log 10 reduction in biofilm CFUs (S. enterica biofilms [4]; [11]): max kill; log 10 reduction in biofilm CFUs (S. enterica biofilms [4]; [12]): max kill
O=S(=O)([O-])c1ccc(N=Nc2c(O)ccc3cc(S(=O)(=O)[O-])ccc23)cc1.[Na+].[Na+] [PS2, Sunset Yellow FCF] | >1 | >1 | >1 | >1 | >1 | >1 % w/V | 0.01 | >1 | >1 | >1 | 0.01 | >1 | >1 | >1 | 0.001 | >1 | >1 % w/V | >1 % w/V | >1 | >1 % w/V | concentration of optimal efficacy (S. enterica biofilms [4]; [10]): 0.001 % w/v; MBC ([6]; fluence 25.5 J/cm^2): >1 % w/V
Cc1cc2nc3c(=O)[nH]c(=O)nc-3n(C[C@H](O)[C@H](O)[C@H](O)COP(=O)([O-])O)c2cc1C.[Na+] [PS1, Riboflavin-5′-Phosphate Sodium USP] | >1 | >1 | >1 | >1 | >1 | 0.1 (Ø) % w/V | 0.1 | >1 | >1 | >1 | 0.1 | >1 | >1 | >1 | 0.1 | >1 | >1 % w/V | >1 % w/V | >1 | >1 % w/V | MBEC (MRSA biofilms [1]; fluence 51.0 J/cm^2, PS alone): 0.1 (Ø) % w/V; log 10 reduction in biofilm CFUs (MRSA biofilms [3]; [13]): 5.36 log 10; concentration of optimal efficacy (S. enterica biofilms [4]; [10]): 0.1 % w/v; log 10 reduction in biofilm CFUs (S. enterica biofilms [4]; [13]): max kill; MBC ([6]; fluence 25.5 J/cm^2): >1 % w/V
